Measured values published in ChEMBL document CHEMBL3785006, “Discovery of 2-Indole-acylsulfonamide Myeloid Cell Leukemia 1 (Mcl-1) Inhibitors Using Fragment-Based Methods” (J Med Chem, 2016).
pKd, pKi: −log10 of the molar value.

What was measured:
[1] = biological target: T1, Induced myeloid leukemia cell differentiation protein Mcl-1 (Homo sapiens, UniProt Q07820)
Bcl-2-like protein 1 = Bcl-2-like protein 1 (Homo sapiens, UniProt Q07817)
[2] = biological target: T1, Induced myeloid leukemia cell differentiation protein Mcl-1; remark: listed apart in the source
[3] = biological target: T1, Induced myeloid leukemia cell differentiation protein Mcl-1; remark: listed apart in the source
[4] = biological target: T1, Induced myeloid leukemia cell differentiation protein Mcl-1; remark: listed apart in the source

T1 sequence (Q07820 whole entry): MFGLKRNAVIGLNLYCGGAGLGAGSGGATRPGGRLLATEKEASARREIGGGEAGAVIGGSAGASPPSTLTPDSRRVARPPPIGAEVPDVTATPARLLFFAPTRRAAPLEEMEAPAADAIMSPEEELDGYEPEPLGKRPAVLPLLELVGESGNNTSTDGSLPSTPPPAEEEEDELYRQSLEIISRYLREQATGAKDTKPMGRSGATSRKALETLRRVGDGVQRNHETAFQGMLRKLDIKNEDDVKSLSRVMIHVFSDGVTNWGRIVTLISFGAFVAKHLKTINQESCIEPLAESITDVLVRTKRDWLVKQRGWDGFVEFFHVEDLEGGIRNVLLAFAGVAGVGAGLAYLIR
Bcl-2-like protein 1, sequence (Q07817 whole entry): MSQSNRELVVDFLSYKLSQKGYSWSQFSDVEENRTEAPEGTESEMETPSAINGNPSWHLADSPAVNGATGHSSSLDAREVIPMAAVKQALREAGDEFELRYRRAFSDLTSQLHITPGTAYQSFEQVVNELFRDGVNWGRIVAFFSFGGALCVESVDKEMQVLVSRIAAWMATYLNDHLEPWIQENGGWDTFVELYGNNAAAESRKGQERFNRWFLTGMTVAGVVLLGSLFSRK

Structure (SMILES)	pKi [1]	pKi (Bcl-2-like protein 1)	pKi [2]	pKi [3]	pKd [4]
Cc1cc(OCCCc2c(C(=O)NS(=O)(=O)c3cccc(CNC(=O)CC(C)C)c3)[nH]c3c(-c4c(C)nn(C)c4C)c(Cl)ccc23)cc(C)c1Cl	7.04	5.81	> 8.00	8.25	
Cc1cc(OCCCc2c(C(=O)NS(=O)(=O)c3ccnc(N(C)CCc4ccccc4)c3)[nH]c3c(-c4c(C)nn(C)c4C)c(Cl)ccc23)cc(C)c1Cl	6.65	6.03	> 8.00	8.60	
Cc1cc(OCCCc2c(C(=O)NS(=O)(=O)c3ccnc(NC4Cc5ccccc5C4)c3)[nH]c3c(-c4c(C)nn(C)c4C)c(Cl)ccc23)cc(C)c1Cl	7.21	6.00	> 8.00	9.00	
Cc1cc(OCCCc2c(C(=O)NS(=O)(=O)c3cccc(CNC(=O)C(C)C)c3)[nH]c3c(-c4c(C)nn(C)c4C)c(Cl)ccc23)cc(C)c1Cl	7.27	< 4.30	> 8.00	7.80	
Cc1cc(OCCCc2c(C(=O)NS(=O)(=O)c3ccnc(NCCC(C)C)c3)[nH]c3c(-c4c(C)nn(C)c4C)c(Cl)ccc23)cc(C)c1Cl	6.75	5.35	> 8.00	8.25	
Oc1ccccc1-c1cc(C(F)(F)C(F)(F)F)[nH]n1					2.82
Cc1cc(OCCCc2c(C(=O)NS(=O)(=O)c3ccc(C(=O)NCc4ccncc4)o3)[nH]c3c(-c4c(C)nn(C)c4C)c(Cl)ccc23)cc(C)c1Cl	7.70	< 4.30	> 8.00	8.07	
Cc1cc(OCCCc2c(C(=O)NS(=O)(=O)c3ccc(C(=O)NCc4ccccc4)o3)[nH]c3c(-c4c(C)nn(C)c4C)c(Cl)ccc23)cc(C)c1Cl	7.08	< 4.30	> 8.00	8.62	
Cc1cc(OCCCc2c(C(=O)NS(=O)(=O)c3ccnc(NCCc4ccccc4)c3)[nH]c3c(-c4c(C)nn(C)c4C)c(Cl)ccc23)cc(C)c1Cl	7.11	5.96	> 8.00	8.92	
Cc1cc(OCCCc2c(C(=O)NS(=O)(=O)c3cccc(CNC(=O)c4ccoc4)c3)[nH]c3c(-c4c(C)nn(C)c4C)c(Cl)ccc23)cc(C)c1Cl	7.16	5.85	> 8.00	8.54	
CC(=O)NCc1cccc(S(=O)(=O)NC(=O)c2[nH]c3c(-c4c(C)nn(C)c4C)c(Cl)ccc3c2CCCOc2cc(C)c(Cl)c(C)c2)c1	7.38	5.04	> 8.00	7.95	
Cc1cc(OCCCc2c(C(=O)NS(=O)(=O)c3cccc(CNC(=O)c4cccn4C)c3)[nH]c3c(-c4c(C)nn(C)c4C)c(Cl)ccc23)cc(C)c1Cl	7.04	< 4.30	> 8.00	8.00	
